Ends that are not written are not given here.

Test system in one data set: not listed separately
Put plainly: Resistance to proteolytic degradation in human serum. It counts as in vitro ADME. Conditions: 25% human serum in water.
Turning to FRWWLYKRALAATTIKIKRRK [Turingcin-46], the amount remaining (commonly what is left of the initial amount, in per cent) at 1 h, 7 mg mL-1 is ~50%.

A further data set deals with S. aureus ATCC 12600. The data set is described as follows: Skin abscess infection mouse model. It counts as in vivo, CD-1 mice. As to conditions: general indicator of potential toxicity.
With FRWWLYKRALAATTIKIKRRK [Turingcin-46], the “Body weight change, skin abscess model” value is on record as “no significant changes in body weight”.

The next data set has as its system S. aureus ATCC 12600. Put plainly: Peritonitis/sepsis mouse model. As to conditions: at the tested dose. Format: in vivo, CD-1 mice.
In the case of FRWWLYKRALAATTIKIKRRK [Turingcin-46], the “Body weight change, peritonitis/sepsis model” value is on record as “no significant changes in body weight”.

Still in this data set, the particulars now being: peritoneal lavage, log10 CFU, n = 9 per group.
On to `CNC(C)C1CCC(N)C(OC2C(N)CC(N)C(OC3OCC(C)(O)C(NC)C3O)C2O)O1` (stereo not shown) [gentamicin, reference compound], for which the “Slope of intracellular versus extracellular bacterial loads (linear regression)” value is on record as 1.37.

Test system in a further data set: not listed separately
The data set is described as follows: Solubility in autoclaved deionized water. Format: physicochemical.
Settings: not given
With “ARWWLYKRALAATTIKIKRRK [F1A-Turingcin-46]”, the “Solubility in autoclaved deionized water” value is reported as “Soluble”.
Consider “FAWWLYKRALAATTIKIKRRK [R2A-Turingcin-46]”, for which the “Solubility in autoclaved deionized water” value is given as “Soluble”.
The same measure, in the same setting: the result for “FRAWLYKRALAATTIKIKRRK [W3A-Turingcin-46]” reads “Soluble”; that for “FRWALYKRALAATTIKIKRRK [W4A-Turingcin-46]”, “Soluble”.
On the same count and under the same terms, the result for “FRWWAYKRALAATTIKIKRRK [L5A-Turingcin-46]” reads “Soluble”.
In the case of “FRWWLAKRALAATTIKIKRRK [Y6A-Turingcin-46]”, the “Solubility in autoclaved deionized water” value is given as “Soluble”.
In the case of “FRWWLYARALAATTIKIKRRK [K7A-Turingcin-46]”, the “Solubility in autoclaved deionized water” value is “Soluble”.
For “FRWWLYKAALAATTIKIKRRK [R8A-Turingcin-46]”, the “Solubility in autoclaved deionized water” value is reported as “Soluble”.
The same measure, in the same setting: next, “FRWWLYKRAAAATTIKIKRRK [L10A-Turingcin-46]”: “Soluble”.
Still for that read-out and setting: next, “FRWWLYKRALAAATIKIKRRK [T13A-Turingcin-46]”: “Soluble”; “FRWWLYKRALAATAIKIKRRK [T14A-Turingcin-46]”: “Soluble”; “FRWWLYKRALAATTAKIKRRK [I15A-Turingcin-46]”: “Soluble”.
Still for that read-out and setting: next, “FRWWLYKRALAATTIAIKRRK [K16A-Turingcin-46]”: “Soluble”; “FRWWLYKRALAATTIKAKRRK [I17A-Turingcin-46]”: “Soluble”.
For the compound “FRWWLYKRALAATTIKIARRK [K18A-Turingcin-46]”, the “Solubility in autoclaved deionized water” value was “Soluble”.
Still for that read-out and setting: the result for “FRWWLYKRALAATTIKIKARK [R19A-Turingcin-46]” reads “Soluble”; that for “FRWWLYKRALAATTIKIKRAK [R20A-Turingcin-46]”, “Soluble”; that for “FRWWLYKRALAATTIKIKRRA [K21A-Turingcin-46]”, “Soluble”.
Consider FRWWLYKRALAATTIKIKRRK [Turingcin-46], for which the “Solubility in autoclaved deionized water” value was “Soluble”.
On the same count and under the same terms, next, ILARLSSILKLI [Turingcin-4]: “Insoluble”; KILIRKILTIIERKLLRSNLKS [Turingcin-12]: “Soluble”; KILWYRIILIRFQKVW [Turingcin-5]: “Insoluble”.
The same measure, in the same setting: next, KIWKIKILRINKKTSSIIA [Turingcin-14]: “Soluble”; KKIIIKFLIFNTKL [Turingcin-19]: “Soluble”; KKRVYRQKIRLIKKAIFFKKR [Turingcin-18]: “Soluble”.
With KKVWYIKVKLALALIKNI [Turingcin-3], the “Solubility in autoclaved deionized water” value is reported as “Soluble”.
KLRSSKKIFQIAAKFNKLFRRK [Turingcin-26]: the “Solubility in autoclaved deionized water” value is “Soluble”.
The same measure, in the same setting: the result for KMWKLRIKLTI [Turingcin-13] reads “Soluble”; that for KQIKQRSIRIKIFKKIL [Turingcin-24], “Soluble”.
The same measure, in the same setting: the result for KRIKILRKYKWNQQYKKKL [Turingcin-16] reads “Soluble”.
Same read-out and setting: next, “KRRAARIKQLRFIQQSLREERIIQKLIK [Turingcin-6]”: “Soluble”; LIWRRKIFRIKLRI [Turingcin-17]: “Soluble”.
For QRRVLRFKLNTKIARLINLNI [Turingcin-27], the “Solubility in autoclaved deionized water” value is listed as “Soluble”.
Still for that read-out and setting: the result for “RIINIILNRNLKKIILAAAIRNAIRW [Turingcin-22]” reads “Soluble”; that for RILRKVWTAWLREAALTIKVKR [Turingcin-9], “Soluble”.
Regarding RILRKWSNWWWNNWLIWK [Turingcin-28], the “Solubility in autoclaved deionized water” value is reported as “Soluble”.
On the same count and under the same terms, the result for RLIKAILNRVWKAWAIQKK [Turingcin-2] reads “Soluble”; that for RLKSILLLIVTKINIRLKIA [Turingcin-7], “Soluble”.
As to RRLNSKINLYLRIIIALINK [Turingcin-20], the “Solubility in autoclaved deionized water” value is “Soluble”.
The same measure, in the same setting: the result for RRWVHKILLIIIKILA [Turingcin-1] reads “Soluble”; that for RVWKTLRIKVYFARRKQR [Turingcin-25], “Soluble”.
Take RWWYTSIIKKKLNKIIA [Turingcin-11]: the “Solubility in autoclaved deionized water” value was “Soluble”.
In the case of RYIRLLVILKLA [Turingcin-10], the “Solubility in autoclaved deionized water” value is “Soluble”.
Still for that read-out and setting: the result for “SRKYRQLAKYIWRNLANKNRLIIKA [Turingcin-15]” reads “Soluble”.
Regarding VMRRFFRLLRKIKL [Turingcin-23], the “Solubility in autoclaved deionized water” value is on record as “Soluble”.
Consider WAVKSSRIIYTLLRKLKTWFNIKAK [Turingcin-8], for which the “Solubility in autoclaved deionized water” value was “Soluble”.
On the same count and under the same terms, next, WYLIRVALIAFKKA [Turingcin-21]: “Insoluble”.

For another data set, the system named is PMA-differentiated human monocytes (THP-1). Put plainly: MTT cytotoxicity assay. As to conditions: Ala-scan. It counts as cell-based.
“FRWALYKRALAATTIKIKRRK [W4A-Turingcin-46]”: the “Cytotoxicity in PMA-differentiated THP-1 cells relative to Turingcin-46” value was “reduced cytotoxicity”.
With “FRWWAYKRALAATTIKIKRRK [L5A-Turingcin-46]”, the “Cytotoxicity in PMA-differentiated THP-1 cells relative to Turingcin-46” value was “reduced cytotoxicity”.
Take “FRWWLYKRALAATTIKIKRAK [R20A-Turingcin-46]”: the “Cytotoxicity in PMA-differentiated THP-1 cells relative to Turingcin-46” value is listed as “reduced cytotoxicity”.
Still for that read-out and setting: the result for “FRWWLYKRALAATTIKIKRRA [K21A-Turingcin-46]” reads “reduced cytotoxicity”.

These data come from doi:10.1101/2024.12.20.629780v2 (bioRxiv, 2024).
